# Experimental data from patent US8211646B1, “Methods of treating ovarian cancer by modulating SnoN” (University of South Florida, priority 2008, dated 2012).
# Peptide text beside a SMILES is read from it. * marks the point of attachment. Cbz = O=C(OCc1ccccc1)*; CH2F = FC*
# Legend:
# Format in all cases: cell-based
# SnoN = assay: Western analysis of SnoN protein levels
# Experimental: (§1) Proteins were resolved on an 8%, 12%, or 15% SDS-PAGE gel (as appropriate) and electrophoretically transferred to polyvinyldifluoride (PVDF) membranes. After blocking with 5% (w/v) milk in TBST (Tris-Buffered Saline containing 0.1% Tween-20) for one hour at room temperature, membranes were incubated with primary antibodies (at appropriate dilution) overnight at 4° C., followed by extensive washing and incubation for 1 hour with the appropriate horseradish peroxidase-conjugated secondary antibodies (BioRad, Hercules, Calif.). Blots were washed extensively. A rabbit polyclonal EVI1 antibody was obtained (1:3000 dilution, St. Jude's Children's Hospital, Memphis, Tenn.). SnoN rabbit polyclonal (1:1000 dilution), PML, and p21 SMURF2 rabbit polyclonal (1:500 dilution), MRP1 mouse monoclonal (1:500 dilution) and GAPDH mouse monoclonal (1:250 dilution) antibodies were obtained from Santa Cruz Biotechnology (Santa Cruz, Calif.). TGFβRII rabbit polyclonal (1:1000 dilution) antibody was obtained from Strategic Diagnostics (Newark, Del.). Smad2/3 rabbit polyclonal (1:1000 dilution), Beclin-1 rabbit polyclonal (1:1000 dilution), AKT rabbit polyclonal (1:1000 dilution), TAK1 rabbit polyclonal (1:1000 dilution), PARP rabbit polyclonal (1:1000 dilution), Beclin-1 rabbit polyclonal (1:1000 dilution), caspase-3 rabbit polyclonal (1:1000) which detects the pro-caspase form, and ATG5 rabbit polyclonal (1:1000 dilution), LC3-II rabbit polyclonal (1:1000 dilution) antibodies were obtained from Cell Signaling Technology (Danvers, Mass.). The HSP27 mouse monoclonal (1:1000 dilution) antibody was obtained from Stressgen (Ann Arbor, Mich.). Blots were developed using chemiluminescence substrates (Amersham Piscataway, N.J. or BioRad, Hercules, Calif.). Monoclonal PAI-1 antibody was obtained from BD Pharmingen. PSMAD2, total SMAD2/3, p-ERK, p-AKT, and total AKT antibodies were obtained from Cell Signaling Technology. A monoclonal antibody against Arkadia was obtained from Abnova (Taiwan).
# (§2) Densitometric analysis was performed using the HP Scanjet 5590 and the Image J program (Image Processing and Analysis in Java, NIH Image Software). Bands were selected and the intensity values were normalized to those for GAPDH. The values are presented as fold-changes relative to control siRNA treated cells.
# The clinical inhibitors As2O3, geldanamycin (17-AAG) (dissolved in dimethylsulfoxide [DMSO]), and MG132 (dissolved in DMSO) were obtained from Sigma-Aldrich (St. Louis, Mo.), Fisher Scientific (Pittsburgh, Pa.), and Alexis Biochemicals (Farmingdale, N.Y.), respectively. N-acetyl-L-cysteine (NAC; dissolved in media) and Bortezomib (PS-341; dissolved in DMSO) were obtained from Fisher Scientific. 3-Methyladenine (3-MA; dissolved in media) was obtained from MP Biomedicals (Solon, Ohio). Tiron (4,5-Dihydroxy-1,3-benzenedisulfonic acid, dissolved in media) was obtained from Fisher Scientific. zVAD-fmk (dissolved in DMSO) and bafilomycin A (dissolved in DMSO) was obtained from Axxora LLC (San Diego, Calif.). Bovine catalase was obtained from Sigma-Aldrich. HBED and Mn TBAP was obtained from ENZO Life Sciences (Farmingdale, N.Y.). Ovarian cells were plated in 6-well plates at 250,000 cells per well and grown in complete medium. […] For control cells, DMSO (a final concentration of <0.5%) was added to compare appropriately to drugs dissolved in DMSO. After the appropriate incubation time (6 or 18 hours), cell lysates were collected, protein quantified, and SDS-PAGE/western analysis was performed. In addition, for selected studies, RNA was isolated, quantified, and used for qPCR analysis.
# [1] = test system: TAK1, SMAD2/3, TGFβRII, AKT, phospho-SMAD2; assay: Western analysis of other TGFβ signaling mediators
# Experimental: as §1, §2
# (§3) The clinical inhibitors As2O3, geldanamycin (17-AAG) (dissolved in dimethylsulfoxide [DMSO]), and MG132 (dissolved in DMSO) were obtained from Sigma-Aldrich (St. Louis, Mo.), Fisher Scientific (Pittsburgh, Pa.), and Alexis Biochemicals (Farmingdale, N.Y.), respectively. N-acetyl-L-cysteine (NAC; dissolved in media) and Bortezomib (PS-341; dissolved in DMSO) were obtained from Fisher Scientific. 3-Methyladenine (3-MA; dissolved in media) was obtained from MP Biomedicals (Solon, Ohio). Tiron (4,5-Dihydroxy-1,3-benzenedisulfonic acid, dissolved in media) was obtained from Fisher Scientific. zVAD-fmk (dissolved in DMSO) and bafilomycin A (dissolved in DMSO) was obtained from Axxora LLC (San Diego, Calif.). Bovine catalase was obtained from Sigma-Aldrich. HBED and Mn TBAP was obtained from ENZO Life Sciences (Farmingdale, N.Y.). Ovarian cells were plated in 6-well plates at 250,000 cells per well and grown in complete medium. The following day, the cells were treated with 5 μM MG132, As2O3 (between 2-50 μM), 17-AAG (between 2-50 μM), NAC (Fisher Scientific, between 25 μM to 1 mM), Tiron (between 25 μM to 1 mM), 3-MA (0.1 mM to 10 mM), or zVAD-fmk (25 μM to 100 μM). For control cells, DMSO (a final concentration of <0.5%) was added to compare appropriately to drugs dissolved in DMSO. After the appropriate incubation time (6 or 18 hours), cell lysates were collected, protein quantified, and SDS-PAGE/western analysis was performed. In addition, for selected studies, RNA was isolated, quantified, and used for qPCR analysis.
# cleaved PARP = assay: Western analysis of PARP cleavage (early apoptosis marker); conditions: HEY; for PARP cleavage in As2O3-treated cells with added inhibitor: 18 hours
# Experimental: as §1, §2, §3
# [2] = test system: LC3-I/LC3-II, autophagosomes; assay: Autophagy: LC3 western, EGFP-LC3 fluorescence, TEM of autophagosomes; conditions: HEY, 18 hours
# Experimental: as §1
# HEY cells were seeded onto glass coverslips and allowed to adhere following overnight incubation. The cells were then transiently transfected with EGFP-LC3 (Addgene, Cambridge, Mass.) and allowed to recover for 24 hours. The cells were treated at the appropriate concentrations of As2O3 in the absence or presence of 3-MA (5 and 10 mM), for 18 hours. The cells were then fixed in 4% paraformaldehyde in PBS for 30 minutes at room temperature, washed twice in PBS, and blocked for 1 hour at room temperature in PBS containing 5% goat serum and 0.1% Triton X-100. The cells were counterstained with Hoescht nuclear stain, washed 3 times for 5 minutes in PBS, anti-Fade containing DAPI nuclear stain was then applied, and coverslips mounted onto glass slides and viewed under a Zeiss inverted fluorescence microscope (Moffitt Cancer Center Microscopy Core).
# Autophagy induction was analyzed using electron microscopy. […] Cells were then fixed in 2.5% glutaraldehyde in 0.1M phosphate buffer overnight at 4° C. Following rinsing in buffer, cells were scraped from the culture flasks, washed, and then post-fixed in 1% osmium tetroxide in buffer. After dehydration in a graded series of acetone, the cells were embedded in Embed 812 epoxy resin. Thin sections (70 nm) were cut on an Ultramicrotome. The sections on the grids were stained with uranyl acetate and lead citrate. The sections were examined on a Transmission Electron Microscope (Morgagni 268D).
# HSP27 = assay: Western analysis of HSP27; conditions: HEY, 18 hours
# Experimental: as §1, with “The HSP27 mouse monoclonal (1:1000 dilution) antibody was obtained from Stressgen (Ann Arbor, Mich.). Blots were developed using chemiluminescence substrates (Amersham Piscataway, N.J. or BioRad, Hercules, Calif.). Monoclonal PAI-1 antibody was obtained from BD Pharmingen. PSMAD2, total SMAD2/3, p-ERK, p-AKT, and total AKT antibodies were obtained from Cell Signaling Technology. A monoclonal antibody against Arkadia was obtained from Abnova (Taiwan).” left out
# (§4) The clinical inhibitors As2O3, geldanamycin (17-AAG) (dissolved in dimethylsulfoxide [DMSO]), and MG132 (dissolved in DMSO) were obtained from Sigma-Aldrich (St. Louis, Mo.), Fisher Scientific (Pittsburgh, Pa.), and Alexis Biochemicals (Farmingdale, N.Y.), respectively. […] After the appropriate incubation time (6 or 18 hours), cell lysates were collected, protein quantified, and SDS-PAGE/western analysis was performed. In addition, for selected studies, RNA was isolated, quantified, and used for qPCR analysis.
# SnoN RNA = assay: qPCR of SnoN RNA levels in ovarian cell lines; parameters: reduction of basal SnoN RNA levels / effect on basal SnoN RNA levels: unit of the concentration uncertain
# Experimental: RNA was isolated using the RNeasy Mini Kit (Qiagen, Valencia, Calif.) from normal, benign, stage I-IV ovarian patient samples and quantitative PCR was performed. A one-step RT-PCR Taqman master mix from Applied Biosystems (Foster City, Calif.) and primers for genes in the 3q26.2 amplicon were obtained using Genebank sequences as well as from Assays on Demand (Hs00180524_m1 (SnoN/SkiL)), with the following primers and probe sets.
# Primers/probe sequences for SnoN (Hs00180524_m1), TGFβRII (Hs00234253_m1), and LC3 (Hs00261291_m1) were obtained from Applied Biosystems (Assays by Design).
# mRNA levels were determined using the One-Step-Plus Applied Biosystems Detection System or ABI PRISM 7700 Sequence Detection System using β-actin as a reference. PCR conditions were as follows: stage I: 48° C. for 30 min; stage II: 95° C. for 10 min; stage III: [40 cycles] 95° C. for 15 s followed by 60° C. for 1 min Using the correlative method, RNA-fold change in expression was calculated as Ct of gene—Ct of β-actin to generate ΔCt from which ΔCt of the normal sample was subtracted. These values were then converted to log2 values.
# as §4, with “respectively. N-acetyl-L-cysteine (NAC; dissolved in media) and Bortezomib (PS-341; dissolved in DMSO) were obtained from Fisher Scientific. 3-Methyladenine (3-MA; dissolved in media) was obtained from MP Biomedicals (Solon, Ohio). Tiron (4,5-Dihydroxy-1,3-benzenedisulfonic acid, dissolved in media) was obtained from Fisher Scientific. zVAD-fmk (dissolved in DMSO) and bafilomycin A (dissolved in DMSO) was obtained from Axxora LLC (San Diego, Calif.).” for “respectively.”
# [3] = test system: EVI1 forms (MDS1/EVI1, EVI1, EVI1^Del190-515)
# Experimental: as §1, §2, §3
# ovarian cancer cells = assay: Cell titer glo cell viability assay; conditions: 25 μM, 18 hour treatment, relative to control cells
# Experimental: Measurement of Intracellular ATP Levels. T80, HEY, and SKOV3 ovarian cells were seeded in triplicate for each treatment group at 5000 cells per well into each well of a 96 well white-opaque plate. Following overnight cell attachment, cells were treated for 18 hours with appropriate doses of arsenic trioxide or geldanamycin (0 mM, 2 μM, 5 μM, 10 μM, 25 μM, and 50 μM). Following termination of the cell treatments, the media was removed from the wells and replaced with 100 μl of phosphate-buffered saline (PBS). The plate was equilibrated to room temperature, 100 μl of Cell-Titer Glo reagent (Promega, Madison, Wis.) was added, and mixed on a plate shaker for 2 minutes. The plate was further incubated for 10 minutes at room temperature prior to reading with a Biotek luminescence plate reader to obtain relative light unit (RLU) measurements. Empty wells (containing no cells) were utilized as a correction for background luminescence. All experiments were performed in triplicate.
# [4] = HEY and OVCA429, 18 hours, increasing doses
compound,measurement,setting,value
TGF-β,SnoN protein levels in ovarian cancer cells,"SnoN; SKOV3, OVCA429, OVCAR8, HEY, between 1 and 3 h post stimulation",dramatic increase
same,SnoN protein levels in immortalized normal ovarian epithelial cells,"SnoN; T29 and T80, between 15 min and 1 h post-TGF-β stimulation (50 pM)",dramatic decrease
same,phospho-SMAD2 levels,"[1]; 1 h post stimulation, T29, T80, SKOV3, HEY, OVCA429, OVCAR8",markedly elevated
COC(=O)C[C@H](NC(=O)[C@H](C)NC(=O)[C@@H](NC(=O)OCc1ccccc1)C(C)C)C(=O)CF [zVAD-fmk] (Cbz-Val-Ala-Asp(OMe)-CH2F),SnoN levels in As2O3-treated cells with added inhibitor,"SnoN; HEY, 18 hours",remained unchanged
same,PARP cleavage in As2O3-treated cells with added inhibitor,cleaved PARP,dramatically reduced
same,LC3 levels (LC3-II/LC3-I) in As2O3-treated cells with added inhibitor,[2],remained unchanged
same,HSP27 levels in As2O3-treated cells with added inhibitor,HSP27,slightly decreased
O=c1cc(N2CCOCC2)oc2c(-c3ccccc3)cccc12 [LY294002],reduction of basal SnoN RNA levels,"SnoN RNA; 50 (unit uncertain), 12 h post-treatment, OVCA429, HEY, T29, T80",50%
"CC(=O)N[C@@H](CS)C(=O)O [NAC, N-acetyl-L-cysteine]",SnoN expression in As2O3-treated cells with increasing doses of NAC,"SnoN; HEY, 18 hours",markedly reduced
same,"EVI1, TAK1, and TGFβRII protein expression in As2O3-treated cells with NAC","[1]; HEY, 18 hours",recovery
N#CC(=C(/N)Sc1ccccc1N)/C(C#N)=C(\N)Sc1ccccc1N [U0126],effect on basal SnoN RNA levels,"SnoN RNA; 25 (unit uncertain), data not shown",not significant
17-allylaminogeldanamycin [17-AAG],SnoN/SkiL protein levels,SnoN; [4],slight decrease
same,MDS1/EVI1 and EVI1^Del190-515 protein,"[3]; 5 μM 17-AAG, 18 hour",reduced
same,wild type EVI1 protein,"[3]; 5 μM 17-AAG, 18 hour",not dramatically affected
same,protein levels of EVI1 forms,[3]; [4],slight decrease
same,"TGFβRII, SMAD2/3, and AKT protein",[1]; [4],more marked reductions
same,reduction of cell growth (cellular viability),ovarian cancer cells,63%
"EVI1 siRNA: Dharmacon custom siRNA against EVI1 Exon VII, SEQ ID 6 (ACUACGUCUUCCUUAAAUAUU; listed as RNA, chemistry not given here)",reduction of SnoN levels,"SnoN; absence and presence of As2O3 (6 and 18 h, 50 μM), HEY",> 50%
same,effect on As2O3-induced PARP cleavage,cleaved PARP; As2O3-treated,did not dramatically alter
"CC(C)C[C@H](NC(=O)[C@H](Cc1ccccc1)NC(=O)c1cnccn1)B(O)O [PS-341, Bortezomib]",SnoN protein in drug-treated cells with added proteosome inhibitor,SnoN; combination with As2O3,further increased
same,EVI1 protein in As2O3-treated cells with added proteosome inhibitor,"[3]; combination with As2O3, HEY, OVCA429",recovered
same,TGFβRII protein in drug-treated cells with added proteosome inhibitor,[1]; combination with As2O3 (MG132: 6 hour drug treatment),did not appear to be recovered
"Cn1cnc(N)c2ncnc1-2 [3-MA, 3-Methyladenine]",SnoN levels in As2O3-treated cells with added inhibitor,"SnoN; HEY, 18 hours",not dramatically altered
same,PARP cleavage in As2O3-treated cells with added inhibitor,cleaved PARP,further increased
same,LC3 levels (LC3-II/LC3-I) in As2O3-treated cells with added inhibitor,[2],reduced
same,HSP27 levels in As2O3-treated cells with added inhibitor,HSP27,reduced dramatically
CO/C1=C\C(C)=C\[C@@H](C)[C@@H](O)[C@@H](C)C/C(C)=C/C=C/[C@H](OC)[C@@H]([C@@H](C)[C@@H](O)[C@H](C)[C@@]2(O)C[C@@H](O)[C@H](C)[C@@H](C(C)C)O2)OC1=O [Bafilomycin A1],SnoN levels in As2O3-treated cells with added inhibitor,"SnoN; HEY, 18 hours",slightly reduced
same,PARP cleavage in As2O3-treated cells with added inhibitor,cleaved PARP,increased
same,LC3 levels (LC3-II/LC3-I) in As2O3-treated cells with added inhibitor,[2],increased
